The values that follow come from ChEMBL document CHEMBL4177658, “Benzo[c][1,2,5]thiadiazole derivatives: A new class of potent Src homology-2 domain containing protein tyrosine phosphatase-2 (SHP2) inhibitors” (Bioorg Med Chem Lett, 2017).

What is called inhibition is the drop in the measured response relative to a control, in per cent. A lower inhibition goes with a weak effect. As usually defined, the IC50 is the concentration at which inhibition is half-maximal. A lower IC50 goes with greater potency in that assay.

A value given as a limit tells only on which side of the number the result lay.

Assay [1] deals with T1, Tyrosine-protein phosphatase non-receptor type 11 (Homo sapiens) (UniProt Q06124).
T1 sequence (whole entry): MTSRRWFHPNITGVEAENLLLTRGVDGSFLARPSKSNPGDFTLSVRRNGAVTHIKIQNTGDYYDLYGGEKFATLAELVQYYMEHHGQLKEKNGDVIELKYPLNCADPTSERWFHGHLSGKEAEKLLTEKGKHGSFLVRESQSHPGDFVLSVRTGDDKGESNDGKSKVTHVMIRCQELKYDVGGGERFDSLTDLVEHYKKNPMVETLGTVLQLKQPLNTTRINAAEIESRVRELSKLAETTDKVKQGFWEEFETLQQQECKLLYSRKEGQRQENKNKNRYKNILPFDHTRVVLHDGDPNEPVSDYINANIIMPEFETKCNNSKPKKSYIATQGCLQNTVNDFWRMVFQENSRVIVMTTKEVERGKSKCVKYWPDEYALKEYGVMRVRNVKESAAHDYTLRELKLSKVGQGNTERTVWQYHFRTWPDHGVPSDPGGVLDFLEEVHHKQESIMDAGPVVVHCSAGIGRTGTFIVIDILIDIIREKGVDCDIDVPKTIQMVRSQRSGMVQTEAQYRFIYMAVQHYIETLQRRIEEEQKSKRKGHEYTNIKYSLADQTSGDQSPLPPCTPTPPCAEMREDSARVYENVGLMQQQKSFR
The assay can be described thus: Inhibition of SHP2 (unknown origin) at 20 ug/ml using 3-o-methylfluorescein phosphate as substrate by fluorescence assay.

The target in assay [2] is T2, Tyrosine-protein phosphatase non-receptor type 1 (Homo sapiens) (UniProt P18031).
T2 sequence (whole entry): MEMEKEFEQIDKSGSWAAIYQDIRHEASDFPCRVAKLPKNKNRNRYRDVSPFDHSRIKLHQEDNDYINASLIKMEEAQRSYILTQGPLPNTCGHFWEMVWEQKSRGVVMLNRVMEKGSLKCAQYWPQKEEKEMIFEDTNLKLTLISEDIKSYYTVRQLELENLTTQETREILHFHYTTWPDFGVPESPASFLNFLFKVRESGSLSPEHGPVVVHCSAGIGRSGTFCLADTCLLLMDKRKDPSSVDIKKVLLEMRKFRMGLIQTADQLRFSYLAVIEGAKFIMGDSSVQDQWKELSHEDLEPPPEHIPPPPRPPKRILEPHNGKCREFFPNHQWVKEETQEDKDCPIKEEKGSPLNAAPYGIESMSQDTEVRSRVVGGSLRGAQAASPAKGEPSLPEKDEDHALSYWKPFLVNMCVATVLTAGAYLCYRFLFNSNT
The assay can be described thus: Inhibition of GST-tagged PTP1B (unknown origin) at 20 ug/ml using pNPP as substrate measured for 3 mins by colorimetric assay.

The target in assay [3] is T3, Tyrosine-protein phosphatase non-receptor type 11 (Homo sapiens, UniProt Q06124).
T3 sequence (Q06124 whole entry): T1 sequence (whole entry)
The assay can be described thus: Inhibition of SHP2 (unknown origin) using 3-o-methylfluorescein phosphate as substrate by fluorescence assay.

The target in assay [4] is T4, Tyrosine-protein phosphatase non-receptor type 1 (Homo sapiens, UniProt P18031).
T4 sequence (P18031 whole entry): T2 sequence (whole entry)
The assay can be described thus: Inhibition of GST-tagged PTP1B (unknown origin) using pNPP as substrate measured for 3 mins by colorimetric assay.

In assay [5] the target is T5, Tyrosine-protein phosphatase non-receptor type 2 (Homo sapiens) (UniProt P17706).
T5 sequence (whole entry): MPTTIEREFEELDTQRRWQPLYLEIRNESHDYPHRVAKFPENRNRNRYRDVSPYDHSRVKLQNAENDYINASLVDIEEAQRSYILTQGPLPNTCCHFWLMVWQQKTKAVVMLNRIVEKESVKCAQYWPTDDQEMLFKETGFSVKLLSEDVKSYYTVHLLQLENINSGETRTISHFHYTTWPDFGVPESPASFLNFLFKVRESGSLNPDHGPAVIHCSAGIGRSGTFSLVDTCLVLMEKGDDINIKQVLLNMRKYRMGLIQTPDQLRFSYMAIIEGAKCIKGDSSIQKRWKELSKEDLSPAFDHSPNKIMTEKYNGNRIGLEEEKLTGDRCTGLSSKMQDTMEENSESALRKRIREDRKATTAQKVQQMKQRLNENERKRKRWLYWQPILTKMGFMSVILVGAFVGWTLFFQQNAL
The assay can be described thus: Inhibition of GST-tagged TCPTP (unknown origin) at 20 ug/ml using pNPP as substrate measured for 3 mins by colorimetric assay.

Assay [6] is filed under the species Homo sapiens. The assay can be described thus: Selectivity index, ratio of IC50 for SHP1 (unknown origin) to IC50 for SHP2 (unknown origin).
The species named for assay [7] is Homo sapiens. The assay can be described thus: Selectivity index, ratio of IC50 for GST-tagged PTP1B (unknown origin) to iC50 for SHP2 (unknown origin).
In assay [8] the target is Tyrosine-protein phosphatase non-receptor type 6 (Homo sapiens, UniProt P29350). The assay can be described thus: Inhibition of SHP1 (unknown origin) using 3-o-methylfluorescein phosphate as substrate by fluorescence assay.
Tyrosine-protein phosphatase non-receptor type 6, sequence (P29350 whole entry): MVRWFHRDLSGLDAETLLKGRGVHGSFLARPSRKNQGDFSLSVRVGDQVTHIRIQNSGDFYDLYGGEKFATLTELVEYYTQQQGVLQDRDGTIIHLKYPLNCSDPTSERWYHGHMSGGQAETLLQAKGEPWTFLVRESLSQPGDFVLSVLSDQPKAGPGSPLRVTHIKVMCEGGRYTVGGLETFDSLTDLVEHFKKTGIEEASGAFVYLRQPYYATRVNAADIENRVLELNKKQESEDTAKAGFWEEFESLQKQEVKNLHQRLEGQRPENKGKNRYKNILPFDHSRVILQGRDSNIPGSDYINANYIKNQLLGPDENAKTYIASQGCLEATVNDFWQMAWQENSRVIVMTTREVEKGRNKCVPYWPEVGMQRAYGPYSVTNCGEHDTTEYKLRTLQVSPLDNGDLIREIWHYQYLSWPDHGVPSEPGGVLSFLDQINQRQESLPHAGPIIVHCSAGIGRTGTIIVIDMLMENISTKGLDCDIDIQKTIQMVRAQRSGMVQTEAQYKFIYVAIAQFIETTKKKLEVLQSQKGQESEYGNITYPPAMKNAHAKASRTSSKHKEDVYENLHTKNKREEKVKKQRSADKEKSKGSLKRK

Consider `Nc1cc2nsnc2cc1-c1ccccc1`, for which the inhibition in assay [1] and in assay [2] was less than 50% throughout.
In the case of `O=[N+]([O-])c1cc2nsnc2cc1C#CCCCCCl`, the inhibition in assay [1] and in assay [2] was less than 50% each time.
Turning to `c1cc2nsnc2cc1NCC1CCCCC1`, the inhibition in assay [1] and in assay [2] was less than 50% in each case.
With `CCCNc1ccc2nsnc2c1`, the inhibition in assay [1] and in assay [2] was less than 50% each time.
Turning to `Nc1cc2nsnc2cc1C#CC1CC1`, the inhibition in assay [2] was less than 50%. Besides, inhibition in assay [3] was half-maximal at 15.5 µM (IC50).
With `O=[N+]([O-])c1cc2nsnc2cc1C#CC1CC1`, the inhibition in assay [1] and in assay [2] was less than 50% throughout.
`CC(C)(C)C#Cc1cc2nsnc2cc1[N+](=O)[O-]`: the inhibition in assay [1] and in assay [2] was less than 50% in each case.
Regarding `c1csc(CNc2ccc3nsnc3c2)c1`, the IC50 in assay [4] is 48.3 µM; in assay [3], 23.9 µM.
As for `Nc1cc2nsnc2cc1C#CCCCCCl`, the IC50 in assay [4] came out at 38.2 µM; in assay [3], 5.81 µM.
Consider `c1ccc(CNc2ccc3nsnc3c2)cc1`, for which the values for the IC50 in assay [4] and in assay [3] were 42.1 µM and 26.5 µM, respectively.
Regarding `c1coc(CNc2ccc3nsnc3c2)c1`, the inhibition in assay [1] and in assay [2] was less than 50% in each case.
For the compound `Nc1cc2nsnc2cc1Br`, the inhibition in assay [2] was less than 50%. This compound also showed an IC50 in assay [3] of 42.4 µM.
Turning to `C[Si](C)(C)C#Cc1cc2nsnc2cc1[N+](=O)[O-]`, the inhibition in assay [1] and in assay [2] was less than 50% in each case.
For `C#Cc1cc2nsnc2cc1N`, the inhibition in assay [5] is less than 50%. Further, the Ratio IC50 in assay [6] was 2.02; in assay [7], 25. The IC50 is 50.2 µM in assay [4], 2.11 µM in assay [3] and 4.28 µM in assay [8].
`O=[N+]([O-])c1cc2nsnc2cc1C#Cc1ccccc1`: the inhibition in assay [1] and in assay [2] was less than 50% each time.
Turning to `c1ccc(CNc2ccc3nsnc3c2)nc1`, in assay [2], the inhibition was less than 50%. 30.6 µM corresponded to half-maximal inhibition in assay [3] (IC50).
In the case of `C#Cc1cc2nsnc2cc1[N+](=O)[O-]`, the inhibition in assay [2] was less than 50%. This compound yielded an IC50 in assay [3] of 30 µM.
As to `C[Si](C)(C)C#Cc1cc2nsnc2cc1N`, the inhibition in assay [1] and in assay [2] was less than 50% in each case.
As to `Nc1cc2nsnc2cc1C#Cc1ccccc1`, the IC50 in assay [4] worked out at 33.6 µM; in assay [3], 14 µM.
With `CC(C)(C)C#Cc1cc2nsnc2cc1N`, the inhibition in assay [2] was less than 50%. The compound also came in with an IC50 in assay [3] of 25.8 µM.
The matching figures for `Nc1ccc2nsnc2c1`: less than 50% and 39.1 µM.
On to `O=[N+]([O-])c1cc2nsnc2cc1-c1ccccc1`, for which the inhibition in assay [1] and in assay [2] was less than 50% each time.
